# Results taken from PMC5146859, “Phase 1/2 study of pacritinib, a next generation JAK2/FLT3 inhibitor, in myelofibrosis or other myeloid malignancies” (Journal of Hematology & Oncology, 2016).
# Tested on: patients with MF
# Experiment: Phase 2 spleen response (volume by MRI, length by physical examination)
# Format: in vivo, human
# Details: phase 2, 400 mg QD
# Description: In phase 2, abdominal MRI to assess spleen and liver volume was performed on day 1 of cycles 1, 4, and 7 and then day 1 of every third cycle through cycle 25. Spleen size (length) was also assessed by manual palpation with each scheduled physical examination. The phase 2 study protocol was amended in September 2009 to include the MF Quality of Life and Symptoms Assessment Tool. […] The instrument was administered pre-dose on day 1 of cycles 1, 2, 4, 7, and 10 and then on day 1 of every third cycle through cycle 25.
# The primary endpoint of the phase 2 component was the proportion of the efficacy population who achieved a ≥35% reduction in spleen volume from baseline at week 24, as measured by MRI. Spleen response rate was also assessed in terms of a ≥35% reduction in spleen volume by MRI up to week 24 and end of treatment and as a ≥50% reduction in spleen length by physical examination up to week 24 and end of treatment. Duration of response was not analyzed due to limitations in the proportion of responders. An exploratory endpoint was the proportion of patients with a ≥50% reduction in MF Quality of Life and Symptoms Assessment Tool at week 24 compared with baseline.
# The planned sample size of 29 patients for the phase 2 component provided 80% power to detect a spleen response rate of ≥30% versus the null hypothesis of a response rate of ≤10%, with α = 0.05 (two-sided). The efficacy-evaluable population included those patients with a baseline and corresponding follow-up value. The safety population included all enrolled patients who received ≥1 dose of pacritinib.
structure (smiles),measurement,setting,value
"C1=C/COCc2cc(ccc2OCCN2CCCC2)Nc2nccc(n2)-c2cccc(c2)COC/1 [pacritinib, 11-(2-pyrrolidin-1-yl-ethoxy)-14,19-dioxa-5,7,26-triaza-tetracyclo[19.3.1.1(2,6). 1(8,12)]heptacosa-1(25),2(26),3,5,8,10,12(27),16,21,23-decaene]",Evaluable patients achieving ≥35% spleen volume reduction by MRI (primary endpoint),at week 24 (4/17),23.5%
same,Patients achieving ≥50% spleen length reduction by physical examination,at week 24 (9/19),47.4%
same,Patients achieving ≥35% spleen volume reduction by MRI,up to end of treatment (7/23),30.4%
same,Patients achieving ≥50% spleen length reduction by physical examination,up to end of treatment (12/31),38.7%
